Assay results as given in US9353146B2, “Acylation derivatives of paridis saponins I, preparation method therefor and application thereof” (HANGZHOU BENSHENG PHARMACEUTICAL CO., LTD., priority 2012, dated 2016).
In brackets after ≈: the same amount, converted by molar mass.

Legend:
[1] = system: K562/adr (drug-resistant, chronic myeloid leukemia, CML); test: Anti-leukemia cell growth inhibition, MTT method, 72 h; format: cell-based, human; settings: for IC50 / IC90: Homo sapiens, K562/Adr
Excerpt: (§1) Leukemia cell lines: leukemia cell lines: K562/adr (drug-resistant, chronic myeloid leukemia, CML), NB4 (acute promyelocytic leukemia, AML), and Kasumi-1 (acute myeloid leukemia M2 type, AML-M2), all of which were donated by Cancer Research Institute of Zhejiang University, China.
(§2) 6000 well-growing leukemia cells were obtained and inoculated into wells of a 96-well cell culture plate. The culture medium used was the 1640 cell culture medium containing 10% fetal bovine serum. After adding the Polyphyllin I derivatives with 5′-acylated arabinofuranosyl of different concentrations and mixing uniformly, the plate was placed in a carbon dioxide cell incubator (5% CO2) at 37° C. and incubated for 72 hours. Then the viable cell concentration was determined by the MTT method. In this experiment, the cell viability in control group (not treated with any compound) is set as 100%. On such basis, the cell viability (%) after treatment of the compound and the 50% inhibiting concentration for the leukemia cell growth at 72 hours (IC50 value and IC90 value of 72 hours) were calculated.

[2] = system: NB4 (acute promyelocytic leukemia, AML); test: as above; format: cell-based, human; settings: for IC50 / IC90: Homo sapiens
Excerpt: as §1, §2

[3] = system: RKO (human colon adenocarcinoma cell); test: Anti-human solid tumor cell growth inhibition, MTT method, 72 h; format: cell-based; settings: for IC90: Homo sapiens
Excerpt: (§3) Human solid tumor cell lines: A549 (human lung cancer) and SK-OV-3 (ovarian cancer cell), all of which are purchased from China Center For Type Culture Collection; RKO (human colon adenocarcinoma cell) and MG-63 (osteosarcoma), all of which are purchased from Fuxiang Bio-tech Co. Ltd., Shanghai, China; Hela (human cervical cancer cell), donated by Cancer Research Institute of Zhejiang University, China.
(§4) 4000 well-growing human solid tumor cells were obtained and inoculated into wells of a 96-well cell culture plate. The culture medium used was DMEM High Glucose cell culture medium containing 10% fetal bovine serum. The plate is placed in a carbon dioxide cell incubator (5% CO2) at 37° C. and incubated for 24 hours. After adding the Polyphyllin I derivatives with 5′-acylated arabinofuranosyl group of different concentrations and mixing uniformly, the plate was continued to be placed in a carbon dioxide cell incubator (5% CO2) at 37° C. and incubated for 72 hours. Then the viable cell concentration was determined by the MTT method and the cell viability (%) after drug treatment was calculated. In this experiment, the cell viability of control group (not treated with any compound) is set as 100%.

A549 (human lung cancer) = test: as above; format: cell-based; settings: for IC50 / IC90: Homo sapiens, A549
Excerpt: as §3, §4

[4] = system: Hela (human cervical cancer cell); test: as above; format: cell-based; settings: for IC50 / IC90: Homo sapiens, HeLa
Excerpt: as §3, §4

[5] = system: Kasumi-1 (acute myeloid leukemia M2 type, AML-M2); test: Anti-leukemia cell growth inhibition, MTT method, 72 h; format: cell-based, human; settings: for IC50: Homo sapiens, Kasumi 1
Excerpt: as §1, §2

MG-63 (osteosarcoma) = test: Anti-human solid tumor cell growth inhibition, MTT method, 72 h; format: cell-based; settings: for IC50 / IC90: Homo sapiens, MG-63
Excerpt: as §3, §4

[6] = system: SK-OV-3 (ovarian cancer cell); test: as above; format: cell-based
Excerpt: as §3, §4

[7] = system: nasopharyngeal carcinoma CNE-2 cell line; settings: HUA Yonghong et al. 2011; cited from earlier work
[8] = system: nasopharyngeal carcinoma CNE-2 cell line; settings: DDP as positive control; HUA Yonghong et al. 2011; cited from earlier work
[9] = system: human hepatocellular carcinoma SMMC-7721 cell line; settings: in vitro; XIAO Meifang et al. 2011; cited from earlier work

Row | Structure (SMILES) | IC50 [1] [µg/mL] | IC50 [2] [µg/mL] | IC90 [2] [µg/mL] | IC90 [3] [µg/mL] | IC90 [1] [µg/mL] | IC50 (A549 (human lung cancer)) [µg/mL] | IC90 (A549 (human lung cancer)) [µg/mL] | IC50 [4] [µg/mL] | IC90 [4] [µg/mL] | further results
1 | COc1ccc(C(=O)OC[C@@H]2OC(O[C@H]3[C@H](O)[C@@H](OC4O[C@@H](C)[C@H](O)[C@@H](O)[C@H]4O)[C@H](O[C@H]4CC[C@@]5(C)C(=CCC6C7CC8O[C@]9(CC[C@@H](C)CO9)[C@@H](C)C8[C@@]7(C)CCC65)C4)O[C@@H]3CO)[C@H](O)[C@H]2O)cc1 (stereo partly drawn) [BS-PP-03] | 0.69 (≈ 0.698 µM) | 1.13 (≈ 1.14 µM) | 1.96 (≈ 1.98 µM) | 4.5 (≈ 4.55 µM) |  |  |  |  |  | 
2 | C[C@@H]1CC[C@@]2(OC1)OC1CC3C4CC=C5C[C@@H](O[C@@H]6O[C@H](CO)[C@@H](OC7O[C@@H](COC(=O)c8ccncc8)[C@H](O)[C@H]7O)[C@H](O)[C@H]6OC6O[C@@H](C)[C@H](O)[C@@H](O)[C@H]6O)CC[C@]5(C)C4CC[C@]3(C)C1[C@@H]2C (stereo partly drawn) [BS-PP-04] | 0.38 (≈ 0.396 µM) | 0.91 (≈ 0.948 µM) | 3.85 (≈ 4.01 µM) |  | 2.33 (≈ 2.43 µM) | 1 (≈ 1.04 µM) | 14.5 (≈ 15.1 µM) | 0.48 (≈ 0.5 µM) | 3.23 (≈ 3.36 µM) | 
3 | C[C@@H]1CC[C@@]2(OC1)OC1CC3C4CC=C5C[C@@H](O[C@@H]6O[C@H](CO)[C@@H](OC7O[C@@H](COC(=O)c8ccc(C(F)(F)F)cc8)[C@H](O)[C@H]7O)[C@H](O)[C@H]6OC6O[C@@H](C)[C@H](O)[C@@H](O)[C@H]6O)CC[C@]5(C)C4CC[C@]3(C)C1[C@@H]2C (stereo partly drawn) [BS-PP-05] |  |  |  | 6.82 (≈ 6.64 µM) |  | 1.8 (≈ 1.75 µM) | 12 (≈ 11.7 µM) |  |  | 
4 | C[C@@H]1CC[C@@]2(OC1)OC1CC3C4CC=C5C[C@@H](O[C@@H]6O[C@H](CO)[C@@H](OC7O[C@@H](COC(=O)c8ccc(F)cc8)[C@H](O)[C@H]7O)[C@H](O)[C@H]6OC6O[C@@H](C)[C@H](O)[C@@H](O)[C@H]6O)CC[C@]5(C)C4CC[C@]3(C)C1[C@@H]2C (stereo partly drawn) [BS-PP-06] | 0.73 (≈ 0.747 µM) | 0.79 (≈ 0.808 µM) | 4.09 (≈ 4.19 µM) | 5.13 (≈ 5.25 µM) | 2.66 (≈ 2.72 µM) |  |  |  |  | 
5 | C[C@@H]1CC[C@@]2(OC1)OC1CC3C4CC=C5C[C@@H](O[C@@H]6O[C@H](CO)[C@@H](OC7O[C@@H](COC(=O)c8ccc(F)cc8F)[C@H](O)[C@H]7O)[C@H](O)[C@H]6OC6O[C@@H](C)[C@H](O)[C@@H](O)[C@H]6O)CC[C@]5(C)C4CC[C@]3(C)C1[C@@H]2C (stereo partly drawn) [BS-PP-08] | 0.49 (≈ 0.492 µM) | 0.85 (≈ 0.854 µM) | 1.9 (≈ 1.91 µM) | 4.93 (≈ 4.95 µM) | 2.5 (≈ 2.51 µM) | 1.19 (≈ 1.2 µM) | 14.1 (≈ 14.1 µM) | 0.61 (≈ 0.613 µM) | 3.89 (≈ 3.91 µM) | 
6 | C[C@@H]1CC[C@@]2(OC1)OC1CC3C4CC=C5C[C@@H](O[C@@H]6O[C@H](CO)[C@@H](OC7O[C@@H](COC(=O)c8cccs8)[C@H](O)[C@H]7O)[C@H](O)[C@H]6OC6O[C@@H](C)[C@H](O)[C@@H](O)[C@H]6O)CC[C@]5(C)C4CC[C@]3(C)C1[C@@H]2C (stereo partly drawn) [BS-PP-09] |  | 1.11 (≈ 1.15 µM) | 3.92 (≈ 4.06 µM) | 5.25 (≈ 5.44 µM) |  | 1.6 (≈ 1.66 µM) | 13 (≈ 13.5 µM) | 0.55 (≈ 0.57 µM) | 2 (≈ 2.07 µM) | 
7 | C[C@@H]1CC[C@@]2(OC1)OC1CC3C4CC=C5C[C@@H](O[C@@H]6O[C@H](CO)[C@@H](OC7O[C@@H](COC(=O)c8ccco8)[C@H](O)[C@H]7O)[C@H](O)[C@H]6OC6O[C@@H](C)[C@H](O)[C@@H](O)[C@H]6O)CC[C@]5(C)C4CC[C@]3(C)C1[C@@H]2C (stereo partly drawn) [BS-PP-10] | 0.45 (≈ 0.474 µM) | 0.83 (≈ 0.875 µM) | 2.82 (≈ 2.97 µM) | 5.46 (≈ 5.75 µM) | 2.23 (≈ 2.35 µM) | 0.86 (≈ 0.906 µM) | 10.2 (≈ 10.8 µM) | 0.45 (≈ 0.474 µM) | 2.01 (≈ 2.12 µM) | IC50 [5]: 0.78 µg/mL (≈ 0.822 µM); IC50 (MG-63 (osteosarcoma)): 0.33 µg/mL (≈ 0.348 µM); IC90 (MG-63 (osteosarcoma)): 0.85 µg/mL (≈ 0.896 µM); IC50 ([6]; Homo sapiens, SK-OV-3): 0.65 µg/mL (≈ 0.685 µM); IC90 ([6]; Homo sapiens, SK-OV-3): 0.97 µg/mL (≈ 1.02 µM)
8 | CC(=O)OC[C@@H]1OC(O[C@H]2[C@H](O)[C@@H](OC3O[C@@H](C)[C@H](O)[C@@H](O)[C@H]3O)[C@H](O[C@H]3CC[C@@]4(C)C(=CCC5C6CC7O[C@]8(CC[C@@H](C)CO8)[C@@H](C)C7[C@@]6(C)CCC54)C3)O[C@@H]2CO)[C@H](O)[C@H]1O (stereo partly drawn) [BS-PP-11] | 0.42 (≈ 0.468 µM) | 0.94 (≈ 1.05 µM) | 2.48 (≈ 2.76 µM) |  | 2.32 (≈ 2.59 µM) | 0.83 (≈ 0.925 µM) | 10.2 (≈ 11.4 µM) | 0.62 (≈ 0.691 µM) | 2.57 (≈ 2.86 µM) | IC50 (MG-63 (osteosarcoma)): 0.33 µg/mL (≈ 0.368 µM); IC90 (MG-63 (osteosarcoma)): 0.76 µg/mL (≈ 0.847 µM)
9 | C[C@@H]1CC[C@@]2(OC1)OC1CC3C4CC=C5C[C@@H](O[C@@H]6O[C@H](CO)[C@@H](OC7O[C@@H](COC(=O)C8CC8)[C@H](O)[C@H]7O)[C@H](O)[C@H]6OC6O[C@@H](C)[C@H](O)[C@@H](O)[C@H]6O)CC[C@]5(C)C4CC[C@]3(C)C1[C@@H]2C (stereo partly drawn) [BS-PP-12] | 0.42 (≈ 0.455 µM) | 1.22 (≈ 1.32 µM) | 3.96 (≈ 4.29 µM) | 6.08 (≈ 6.59 µM) | 2.14 (≈ 2.32 µM) | 0.86 (≈ 0.932 µM) | 7.38 (≈ 7.99 µM) | 0.5 (≈ 0.542 µM) | 3.19 (≈ 3.46 µM) | IC50 [5]: 0.86 µg/mL (≈ 0.932 µM)
10 | C[C@@H]1CC[C@@]2(OC1)OC1CC3C4CC=C5C[C@@H](O[C@@H]6O[C@H](CO)[C@@H](OC7O[C@@H](COC(=O)c8ccc(F)cc8Cl)[C@H](O)[C@H]7O)[C@H](O)[C@H]6OC6O[C@@H](C)[C@H](O)[C@@H](O)[C@H]6O)CC[C@]5(C)C4CC[C@]3(C)C1[C@@H]2C (stereo partly drawn) [BS-PP-15] | 0.76 (≈ 0.751 µM) | 1.19 (≈ 1.18 µM) | 3.4 (≈ 3.36 µM) | 5.13 (≈ 5.07 µM) | 2 (≈ 1.98 µM) | 1.8 (≈ 1.78 µM) | 9.9 (≈ 9.79 µM) | 0.68 (≈ 0.672 µM) | 3.51 (≈ 3.47 µM) | 
11 | C[C@@H]1CC[C@@]2(OC1)O[C@H]1C[C@H]3[C@@H]4CC=C5C[C@@H](O[C@@H]6O[C@H](CO)[C@@H](O[C@@H]7O[C@@H](CO)[C@H](O)[C@H]7O)[C@H](O)[C@H]6O[C@@H]6O[C@@H](C)[C@H](O)[C@@H](O)[C@H]6O)CC[C@]5(C)[C@H]4CC[C@]3(C)[C@H]1[C@@H]2C [PP, 4-O-arabinofuranosyl-2-O-rhamnopyranosyl-β-D-glucopyranosyldioscin, reference compound] |  |  |  |  |  |  |  |  |  | K562/adr IC50 [1]: 0.87 µg/mL; K562/adr IC90 [1]: 2.98 µg/mL; Kasumi-1 IC50 [5]: 0.92 µg/mL; NB4 IC50 [2]: 1.84 µg/mL; NB4 IC90 [2]: 6.75 µg/mL; A549 IC50 (A549 (human lung cancer)): 1.86 µg/mL; A549 IC90 (A549 (human lung cancer)): 14.63 µg/mL; Hela IC50 [4]: 0.77 µg/mL; Hela IC90 [4]: 4.86 µg/mL; MG-63 IC50 (MG-63 (osteosarcoma)): 0.37 µg/mL; MG-63 IC90 (MG-63 (osteosarcoma)): 0.97 µg/mL; RKO IC90 [3]: 8.48 µg/mL; SK-OV-3 IC50 [6]: 0.70 µg/mL; SK-OV-3 IC90 [6]: 1.70 µg/mL; effects on the proliferation of CNE-2 cells [7]: time- and dose-dependent inhibitory effects; radiosensitizing effects on CNE-2 cell line [8]: concentration-dependent radiosensitizing effects; effect on proliferation of SMMC-7721 cells [9]: inhibit the proliferation of hepatocellular carcinoma SMMC-7721 cells in a time- and concentration-dependent manner
